The values that follow are results of earlier work, collected in patent publication US20060148027A1, “Sprouty and SPRED protein biosensors” (Board of Regents, the University of Texas System, priority 2005, published 2006).

For the series the following is noted: known potential of the reference redox dye.

Consider `Cc1cc2nc3cc(C)c(N)cc3[n+](-c3ccccc3)c2cc1N.[Cl-]` [Safranine O], for which the redox potential is on record as −289 mV.
